Consider two compounds from US20240408071A1, “NOVEL COMBINATION OF SEROTONIN RECEPTOR (5-HTR2B) ANTAGONIST AND AN IMMUNOMODULATOR AND CHEMOTHERAPEUTIC DRUGS FOR INHIBITION OF CANCER” (NATIONAL CENTRE FOR CELL SCIENCE, priority 2021, published 2024).

SMILES strings stand for the structures.

Series [1] deals with OT-II CD4 T cells. Put plainly: OT-II peptide-specific proliferation of CFSE-tagged OT-II CD4 T cells in vitro. Type of series: cell-based, mouse. The conditions noted are these: BW-723C86 10 μM, OT-II peptide (Ova323-339), 5 days (FIG. 12A-B). The procedure:
FIG. 12 depicts that 5-HTR2B signalling affects the antigen-specific proliferation of CD4 T cells: (A-B) Total CD4 T cells were harvested from the lymph node of OT-II mice and they were tagged with CFSE and cultured in vitro in the presence or absence of OT-II peptide (Ova323-339), IL-2, 5-HTR2B agonist BW-723C86 (10 μM), Serotonin (20 μM) or 5-HTR2B antagonist RS-127445 (15 μM) for 5 days. After 5 days the proliferation of OT-II tetramer^+ CD4 T cells was measured and plotted as histogram overlay (A) or as statistical data (B). (C-D) Flow cytometric data and statistical analysis of the percentage of intra-tumoral OT-II-tetramer^+ IFNγ^+ CD4 T cell population from the control and RS-127445 treated MC38-ova tumor-bearing mice. (E-F) Flow cytometric data and statistical analysis of the percentage of intra-tumoral OT-II-tetramer^+ IFNγ^+ CD4 T cell population from the control and RS-127445 treated MC38-ova tumor-bearing mice. […]
A simple adoptive transfer experiment was performed to study the enhancement of CTL response in general or antigen-specific. […] The CFSE-tagged total lymph node cells from […] were cultured in the presence or absence of OT-II peptide (Ova323-339) 5-HTR2B agonist (BW-723C86), serotonin, and 5-HTR2B antagonist (RS-127445) as indicated in the figure for 5 days and the proliferation was measured (FIG. 12A-B). […]

For series [2] the following is noted: compared with other 5-HTR2B antagonists; cited from earlier work.

With `CC(N)Cc1c[nH]c2ccc(OCc3cccs3)cc12` (centres unmarked) [BW-723C86], the “OT-II peptide-specific proliferation of OT-II CD4 T cells” value in series [1] is on record as “significantly reduced”. `CC(C)c1cc(-c2ccc(F)c3ccccc23)nc(N)n1` [RS-127445]: the bioavailability entry in series [2] is reported as “higher bioavailability”.
